The results in this text go back to ChEMBL document CHEMBL1201862, “PubChem BioAssay data set” (2004).

The structures appear in SMILES notation.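 Five compound concentrations were applied to cells in 96-well plates for 48 hours; endpoints were derived by simple linear interpolation of the resulting dose-response curve. GI50 = concentration required for 50% inhibition of growth.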 Activity calls are given as the source filed them. No stated cut-off is given here; in the data, active = GI50 up to about 1.1 µM and inactive = higher.

Common to all, as to assay: growth of human tumour cells (NCI), 48 h
In assay [1] the test system is NCI-H522.
For assay [2], the system named is SNB-75.
The test system of assay [3] is OVCAR-3.
Assay [4] concerns KM12.
In assay [5] the test system is SK-MEL-2.
Assay [6] deals with OVCAR-4.
Assay [7] has as its system SW-620.
Assay [8] relates to UO-31.
For assay [9], the system named is HCC 2998.
Assay [10] relates to UACC-62.
The test system of assay [11] is K562.
In assay [12] the test system is HCT-15.
For assay [13], the system named is HL-60.
Assay [14] concerns SF-539.
In assay [15] the test system is M14.

For `O=C(c1ccc(Cl)cc1Cl)N(/N=C/C=C/c1ccccc1)c1nnc(-c2ccccc2)c(-c2ccccc2)n1`, the GI50 in [1] is 21.8 µM (inactive); in assay [2], > 100 µM (inactive); in assay [3], > 100 µM (inactive); in assay [4], > 100 µM (inactive); in [5], > 100 µM (inactive); in assay [6], > 100 µM (inactive). Also, the GI50 was > 100 µM (inactive) in assay [7]; 76.4 µM (inactive) in assay [8]; > 100 µM (inactive) in assay [9]; > 100 µM (inactive) in assay [10]; > 100 µM (inactive) in [11]; more than 100 µM in [12]. The GI50 in assay [13] and in assay [14] was > 100 µM (inactive) in each case.
In the case of `CC(C)CC(N)C(=O)OCN1C(=O)C2C3C=CC(C2C1=O)C1C2C(=O)N(COC(=O)C(N)CC(C)C)C(=O)C2C31` (stereo not drawn), the GI50 was > 100 µM (inactive) in [1]; > 75 µM (inactive) in assay [2]; > 100 µM (inactive) in [3]; > 100 µM (inactive) in [4]; > 100 µM (inactive) in assay [5]; > 100 µM (inactive) in assay [15]. In addition, the GI50 in [6] is > 100 µM (inactive); in [7] it was > 53.6 µM (inactive); in assay [8], > 100 µM (inactive); in [9] it was > 100 µM (inactive); in assay [10] it was > 100 µM (inactive); in [11], > 100 µM (inactive). Besides, the GI50 in assay [12] was more than 45 µM; in [13], 30.4 µM (inactive); in assay [14] it was > 100 µM (inactive).
Turning to `COC(=O)C1Cc2c([nH]c3ccccc23)C(c2ccccc2O)N1Cc1ccccc1` (stereo not drawn), the GI50 in assay [1] was 16.4 µM (inactive); in assay [2], 7.05 µM (inactive); in [3], 27.7 µM (inactive); in assay [4], > 31.6 µM (inactive); in assay [5], 21.8 µM (inactive); in assay [15], 38.4 µM (inactive). The GI50 in [6] was 24.4 µM (inactive); in assay [7], 39.5 µM (inactive); in [8], 31 µM (inactive); in [9], > 31.6 µM (inactive); in assay [10] it was 25.4 µM (inactive); in [11], 37.5 µM (inactive). In addition, the values for the GI50 in assay [12], in assay [13] and in [14] were more than 46.5 µM, > 46.5 µM (inactive) and 27.8 µM (inactive), respectively.
Turning to `COc1ccc(OC)c(NC(=O)C(=O)NNC(=O)c2sc(NNC(C)=O)nc2C)c1`, the GI50 in [1] is 18.2 µM (inactive); in assay [3] it was 21.8 µM (inactive); in assay [4], 39.4 µM (inactive); in assay [5] it was 43 µM (inactive); in assay [15], 50.9 µM (inactive); in assay [6], 26.3 µM (inactive). Besides, the GI50 was 22.6 µM (inactive) in assay [7]; 45.4 µM (inactive) in [8]; 45.1 µM (inactive) in assay [9]; 29.6 µM (inactive) in [10]; 17.1 µM (inactive) in assay [11]; 31 µM in assay [12]. Moreover, the GI50 in [13] was 36.2 µM (inactive); in assay [14], 26.8 µM (inactive).
Consider `CC#CC1C2CCCC1(CSc1ccccc1)NC(=O)O2` (stereo not drawn), for which the GI50 in [1], in [2], in assay [3], in [4], in assay [5] and in [15] was > 100 µM (inactive) in each case. In addition, the GI50 in [6], in assay [7], in [8], in assay [9], in assay [10] and in assay [11] was > 100 µM (inactive) throughout. The GI50 in [12] is more than 100 µM; in assay [13], > 100 µM (inactive); in [14] it was > 100 µM (inactive).
Turning to `O=C1[C@@H]2C(c3c(Cl)cccc3Cl)=NO[C@@H]2C(=O)N1c1ccc(Cc2ccc(N3C(=O)[C@H]4C(c5c(Cl)cccc5Cl)=NO[C@H]4C3=O)cc2)cc1`, the GI50 in assay [2], in assay [3], in assay [4], in assay [5], in [15] and in assay [6] was > 100 µM (inactive) each time. In addition, the GI50 in assay [7] was > 100 µM (inactive); in [8], 90.6 µM (inactive); in assay [9], > 100 µM (inactive); in assay [10] it was > 100 µM (inactive); in assay [11], > 100 µM (inactive); in assay [12], more than 100 µM. Moreover, the GI50 in assay [13] and in assay [14] was > 100 µM (inactive) each time.
Take `CC(=O)C1Cn2c(nc3ccccc32)C[Se]1` (stereo not drawn): the GI50 in assay [1] is 3.28 µM (inactive); in [2], 2.55 µM (inactive); in [3] it was 2.22 µM (inactive); in [4] it was 3.4 µM (inactive); in [15], 2.3 µM (inactive); in [6], 3.44 µM (inactive). Also, the GI50 in assay [7] is 5.28 µM (inactive); in [8] it was 3.1 µM (inactive); in assay [9], 10.3 µM (inactive); in assay [10], 1.97 µM (inactive); in assay [11] it was 4.23 µM (inactive); in assay [12] it was 4.56 µM. Also, the GI50 in assay [13] is 2.47 µM (inactive); in assay [14] it was 2.29 µM (inactive).
Turning to `O=C(O)c1cc(=O)c2cc(C(=O)c3cccs3)c(Cl)c(Cl)c2o1`, the GI50 in assay [1], in [2], in assay [3], in assay [4], in assay [5] and in assay [15] was > 100 µM (inactive) throughout. The GI50 in assay [6], in [7], in [8], in assay [9], in assay [10] and in assay [11] was > 100 µM (inactive) in each case. The GI50 in [13] is > 100 µM (inactive).
`COc1ccc(COCC(Cn2ccnc2)OCc2ccc(C(=O)O)cc2)cc1` (stereo not drawn): the GI50 was > 100 µM (inactive) in assay [1]; 59.6 µM (inactive) in [2]; > 100 µM (inactive) in assay [4]; > 100 µM (inactive) in assay [5]; > 100 µM (inactive) in assay [15]; > 100 µM (inactive) in assay [6]. Moreover, the GI50 in [7] was > 100 µM (inactive); in assay [8] it was > 100 µM (inactive); in [9], > 100 µM (inactive); in [10], > 100 µM (inactive); in assay [11] it was > 100 µM (inactive); in assay [12], more than 100 µM. The GI50 in assay [13] and in [14] was > 100 µM (inactive) throughout.
Turning to `COc1cccc(N2C(=O)[C@H]3CC(C)c4c([nH]c5ccccc45)[C@H]3C2=O)c1` (stereo partly drawn), the GI50 in [1] was 24.9 µM (inactive); in assay [2], 19.6 µM (inactive); in assay [3] it was 40.1 µM (inactive); in assay [4] it was 57.5 µM (inactive); in assay [5], 27.5 µM (inactive); in assay [15] it was > 100 µM (inactive). For the same compound, the GI50 in assay [7] was > 10 µM (inactive); in assay [8], 84.7 µM (inactive); in assay [9], > 100 µM (inactive); in assay [10], 39.4 µM (inactive); in [11], 46 µM (inactive); in assay [12], more than 100 µM. Besides, the GI50 was > 100 µM (inactive) in assay [13] and 29.1 µM (inactive) in assay [14].
With `COCCN1C2=CCCCC2=Nc2c(N)nc(N)nc21`, the GI50 in assay [1] was > 100 µM (inactive); in assay [2] it was > 100 µM (inactive); in assay [3], 38 µM (inactive); in assay [4], > 100 µM (inactive); in assay [5], > 100 µM (inactive); in assay [15], > 100 µM (inactive). The GI50 in [8] was > 100 µM (inactive); in [9], > 100 µM (inactive); in assay [10], > 100 µM (inactive); in assay [11], > 100 µM (inactive); in assay [12], more than 100 µM; in [13], > 100 µM (inactive). Besides, the GI50 in [14] was > 100 µM (inactive).
For the compound `O=c1c2ccccc2nc(-c2ccccc2)n1NC1OC(CO)C(O)C(O)C1O` (stereo not drawn), the GI50 was > 100 µM (inactive) in assay [1]; 85.3 µM (inactive) in [2]; > 100 µM (inactive) in [3]; > 100 µM (inactive) in assay [4]; > 100 µM (inactive) in assay [5]; > 100 µM (inactive) in [15]. Also, the GI50 in [6], in assay [7], in assay [8], in [9], in [10] and in assay [11] was > 100 µM (inactive) each time. Besides, the GI50 in assay [12] was more than 100 µM; in assay [13], > 100 µM (inactive); in assay [14] it was > 100 µM (inactive).
For the compound `Clc1ccccc1/C=C/c1cscn1`, the GI50 in assay [1], in assay [2], in [3], in assay [4], in assay [5] and in [15] was > 100 µM (inactive) throughout. Moreover, the GI50 was > 100 µM (inactive) in assay [6]; 88.1 µM (inactive) in [8]; > 100 µM (inactive) in assay [9]; > 100 µM (inactive) in [10]; > 100 µM (inactive) in assay [11]; more than 100 µM in assay [12]. For the same compound, the GI50 in assay [13] and in assay [14] was > 100 µM (inactive) in each case.
As to `CSc1ccc(/C=C2/C[N+](C)(C)C/C(=C/c3ccc(SC)cc3)C2=O)cc1`, the GI50 in assay [1] is 7.36 µM (inactive); in assay [2], 6.52 µM (inactive); in assay [3] it was 15.9 µM (inactive); in assay [4], 4.85 µM (inactive); in assay [5], 20.1 µM (inactive); in [15], 13.5 µM (inactive). Further, the GI50 in [7] is 12.2 µM (inactive); in assay [8], > 100 µM (inactive); in [9], 15.5 µM (inactive); in assay [10], 0.168 µM (active); in [11], 5.47 µM (inactive); in assay [12], 47 µM. Besides, the GI50 is 2.49 µM (inactive) in [13] and 17.7 µM (inactive) in assay [14].
